# Laboratory results: US6747027B1, “Thiol sulfonamide metalloprotease inhibitors” (Pharmacia Corporation, priority 1996, dated 2004)
# Columns and labels:
# recombinant human MMP-13 = molecular target: T1, recombinant human MMP-13 (Homo sapiens, UniProt P45452); assay: In vitro metalloprotease inhibition, fluorogenic peptide assay (MMP-13); assay type: biochemical
# T1 construct: made in house
# Protocol: (§1) Certain of the compounds prepared in the manner described in Examples 1 to 223 were tested for activity by an in vitro assay. Following the procedures of Knight et al., FEBS Lett. 296(3):263 (1992). Briefly, 4-aminophenylmercuric acetate (APMA) or trypsin activated MMPs were incubated with various concentrations of the inhibitor compound at room temperature for 5 minutes (0.02% 2-mercapto-ethanol added to buffer for thiol compounds with 5 minutes or overnight incubation). More specifically, recombinant human MMP-13 and MMP-1 enzymes were prepared in laboratories of the inventors' employer. MMP-13 was expressed in baculovirus as a proenzyme, and purified first over a heparin agarose column and then over a chelating zinc chloride column. The proenzyme was activated by APMA for use in the assay. MMP-1 expressed in transfected HT-1080 was provided by Dr. Howard Welgus of Washington University, St. Louis, Mo. The enzyme was also activated using APMA and was then purified over a hydroxamic acid column.
# (§2) The enzyme substrate is a methoxycoumarin-containing polypeptide having the following sequence:
# (§3) MCA-ProLeuGlyLeuDpaAlaArgNH^2, wherein MCA is methoxycoumarin and Dpa is 3-(2,4-dinitrophenyl)-L-2,3-diaminopropionyl alanine. This substrate is commercially available from Baychem as product M-1895.
# (§4) The buffer used for assays contained 100 mM Tris-HCl, 100 mM NaCl, 10 mM CaCl2 and 0.05 percent polyethyleneglycol(23) lauryl ether at a pH value of 7.5. Assays were carried out at room temperature, and dimethyl sulfoxide (DMSO) at a final concentration of 1 percent was used to dissolve inhibitor compound.
# (§5) The assayed inhibitor compound in DMSO/buffer solution was compared to an equal amount of DMSO/buffer with no inhibitor as control using microfluor™ white plates (Dynatech). The inhibitor or control solution was maintained in the plate for 10 minutes and the substrate was added to provide a final concentration of 4 uM.
# (§6) In the absence of inhibitor activity, a fluorogenic peptide is cleaved at the gly-leu peptide bond, separating the highly fluorogenic peptide from a 2.4-dinitrophenyl quencher, resulting in an increase of fluorescence intensity (excitation at 328 nm/emmision at 415 nm). Inhibition was measured as a reduction in fluorescent intensity as a function of inhibitor concentration, using a Perkin Elmer L550 plate reader. The IC50 values were calculated from those values. The results are set forth in the Inhibition Table below, reported in terms of IC50 to three significant figures.
# recombinant human MMP-1 = molecular target: T2, recombinant human MMP-1 (Homo sapiens, UniProt P03956); assay: In vitro metalloprotease inhibition, fluorogenic peptide assay (MMP-1); assay type: biochemical; settings: recombinant human MMP-1, APMA activated; fluorogenic MCA peptide substrate 4 uM; pH 7.5, room temperature
# T2 construct: made in house; host or cells: transfected HT-1080 cells (provided by Dr. Howard Welgus, Washington University)
# T2 sequence (P03956 100-469): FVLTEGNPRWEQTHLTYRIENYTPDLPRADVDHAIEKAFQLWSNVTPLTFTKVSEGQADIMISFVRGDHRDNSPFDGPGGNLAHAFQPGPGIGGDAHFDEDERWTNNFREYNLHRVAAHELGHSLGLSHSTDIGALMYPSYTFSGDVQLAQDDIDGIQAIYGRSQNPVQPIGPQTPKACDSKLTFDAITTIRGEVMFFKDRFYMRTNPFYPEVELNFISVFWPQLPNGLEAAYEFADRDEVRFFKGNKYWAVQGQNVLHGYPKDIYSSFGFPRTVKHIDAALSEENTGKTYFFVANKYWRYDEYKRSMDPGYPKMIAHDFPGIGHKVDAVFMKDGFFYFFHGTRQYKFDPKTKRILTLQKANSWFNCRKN
# Protocol: as §1, §2, §3, §4, §5, §6
# [1] = recombinant human MMP-13, APMA activated, fluorogenic MCA peptide substrate 4 uM, pH 7.5, room temperature
SMILES,IC50 (recombinant human MMP-13; [1]) [nM],IC50 (recombinant human MMP-1) [nM],"IC50 (recombinant human MMP-13; in vitro, recombinant human MMP-13) [nM]"
CCCCOc1ccc(S(=O)(=O)N(C)[C@H](C)CSSC[C@@H](C)N(C)S(=O)(=O)c2ccc(OCCCC)cc2)cc1 [Example 18],390,> 10000,
"C[C@H](CS)N(C)S(=O)(=O)c1ccc2c(c1)OCO2 [Example 20C, N-(2-Mercapto-1R-methylethyl)-N-methyl-5-(1,3-benzodioxol-5-yl)sulfonamide]",110,3000,
"C[C@H](CS)N(Cc1ccccc1)S(=O)(=O)c1ccc2c(c1)OCO2 [Example 21C, N-(2-Mercapto-1R-methylethyl)-N-(phenylmethyl)-5-(1,3-benzodioxol-5-yl)sulfonamide]",200,7000,
"CCCCOc1ccc(S(=O)(=O)N(C)[C@H](C)CS)cc1 [Example 22C, N-(2-mercapto-1R-methylethyl)-N-methyl-4-(n-butoxybenzene)sulfonamide]",13,3400,
"COc1ccc(S(=O)(=O)N2CCC(S)C2)cc1 (stereo not drawn) [Example 26, 1-[(4-Methoxyphenyl)sulfonyl]-3-mercaptopyrrolidine]",250,> 10000,
"COc1ccc(S(=O)(=O)N2CCCC2CS)cc1 (stereo not drawn) [Example 28, 1-[(4-Methoxyphenyl)sulfonyl]pyrrolidine-2-methanethiol]",800,> 10000,
"COc1ccc(S(=O)(=O)N(Cc2ccccc2)[C@@H](CS)C(C)C)cc1 [Example 31D, N-[(1R-Mercaptomethyl)-2-methylpropyl]-4-methoxy-N-(phenylmethyl)benzenesulfonamide]",600,2500,
COc1ccc(S(=O)(=O)N(Cc2ccccc2)C(CSC(C)=O)C(C)C)cc1 (stereo not drawn) [Example 33C],345,> 10000,
"COc1ccc(S(=O)(=O)N(Cc2ccccc2)[C@H](CS)C(C)C)cc1 [Example 33D, N-[(1S-Mercaptomethyl)-2-methylpropyl]-4-methoxy-N-(phenylmethyl)benzenesulfonamide]",> 10000,> 10000,
"CCCOc1ccc(S(=O)(=O)N(C)[C@H](C)CS)cc1 [Example 37C, N-(2-Mercapto-1R-methylethyl)-N-methyl-4-(n-propyloxy)benzenesulfonamide]",5,1500,
"CCOc1ccc(S(=O)(=O)N(C)[C@H](C)CS)cc1 [Example 38C, N-(2-Mercapto-1R-methylethyl)-N-methyl-4-ethoxybenzenesulfonamide]",31,2500,
"CCCCCOc1ccc(S(=O)(=O)N(C)[C@H](C)CS)cc1 [Example 39C, N-(2-Mercapto-1R-methylethyl)-N-methyl-4-(n-pentyloxy)benzenesulfonamide]",21.5,> 10000,
"C[C@H](CS)N(C)S(=O)(=O)c1ccc(Oc2ccccc2)cc1 [Example 40E, N-(2-Mercapto-1R-methylethyl)-N-methyl-4-(phenoxy)benzenesulfonamide]",0.61,309,
"C[C@H](CS)N(C)S(=O)(=O)c1ccc(Sc2ccccc2)cc1 [Example 41C, N-(2-Mercapto-1R-methylethyl)-N-methyl-4-(thiophenyl)benzenesulfonamide]",1.8,> 10000,2
"C[C@H](CO)N(C)S(=O)(=O)c1ccc(-c2ccccn2)s1 [Example 42D, N-(2-Hydroxy-1R-methylethyl)-N-methyl-2-(pyrid-2-yl)thiophene-5-sulfonamide]",1800,> 10000,
"COc1ccc(S(=O)(=O)N(C)Cc2ccccc2S)cc1 [Example 44, N-[(2-Mercaptophenyl)methyl]-N-methyl-4-methoxybenzenesulfonamide]",400,> 10000,

SMILES,IC50 (recombinant human MMP-13; [1]) [nM],IC50 (recombinant human MMP-1) [nM],"IC50 (recombinant human MMP-13; in vitro, recombinant human MMP-13) [nM]"
"CCCCOc1ccc(S(=O)(=O)N(CCN2CCOCC2)[C@H](C)CS)cc1 [Example 45C, N-(2-Mercapto-1R-methylethyl)-N-[2-(4-morpholino)ethyl]-4-(n-butoxy)benzenesulfonamide]",3,3200,
"CCCCOc1ccc(S(=O)(=O)N(CCN2CCCCC2)[C@H](C)CS)cc1 [Example 46, N-(2-Mercapto-1R-methylethyl)-N-[2-(1-piperidino)ethyl]-4-(n-butoxy)benzenesulfonamide]",4,3500,
"CCCCOc1ccc(S(=O)(=O)N(CCN2CCCC2)[C@H](C)CS)cc1 [Example 47C, N-(2-Mercapto-1R-methylethyl)-N-[2-(1-pyrrolidino)ethyl]-4-(n-butoxy)benzenesulfonamide]",4.47,4830,
"CCCCCN([C@H](C)CS)S(=O)(=O)c1ccc(OCCCC)cc1 [Example 48C, N-(2-Mercapto-1R-methylethyl)-N-pentyl-4-(n-butoxy)benzenesulfonamide]",45,> 10000,
"COc1ccc(S(=O)(=O)N(Cc2cccnc2)[C@H](C)CS)cc1 [Example 49, N-(2-Mercapto-1-R-methylethyl)-N-(3-pyridylmethyl)-4-methoxybenzenesulfonamide]",17.5,300,
"C[C@H](CS)N(Cc1ccccc1)S(=O)(=O)CCCSc1ccccc1 [Example 51, N-(2-Mercapto-1R-methylethyl)-N-benzyl(3-thiophenylpropyl)sulphonamide]",340,> 10000,
"C[C@H](CS)N(CCN1CCCCC1)S(=O)(=O)CCCSc1ccccc1 [Example 52, N-(2-Mercapto-1R-methylethyl)-N-[2-(1-piperidino)ethyl](3-thiophenylpropyl)sulphonamide]",45,> 10000,
"CCCCCc1ccc(S(=O)(=O)N(C)[C@H](C)CS)cc1 [Example 53, N-(2-Mercapto-1R-methylethyl)-N-methyl-4-(n-pentyl)benzenesulfonamide]",11,> 10000,
"CCCCCc1ccc(S(=O)(=O)N(CCN2CCOCC2)[C@H](C)CS)cc1 [Example 54, N-(2-Mercapto-1R-methylethyl)-N-[2-(4-morpholino)ethyl]-4-(n-pentyl)benzenesulfonamide]",7,9000,
"C[C@H](CS)N(C)S(=O)(=O)c1ccc(-c2ccccc2)cc1 [Example 55, N-(2-Mercapto-1R-methylethyl)-N-methyl-4-(phenyl)benzenesulfonamide]",0.71,313,
"COc1ccc(S(=O)(=O)N(Cc2ccccc2)C(CS)Cc2ccccc2)cc1 (stereo not drawn) [Example 57, N-(2-Mercapto-1R,S-phenylmethyl)-N-phenylmethyl-4-methoxybenzenesulfonamide]",5000,> 10000,
COC(=O)[C@H](CSSC[C@H](NS(=O)(=O)c1ccc(OC)cc1)C(=O)OC)NS(=O)(=O)c1ccc(OC)cc1 [Example 58],200,6000,
COC(=O)[C@H](CSSC[C@@H](C(=O)OC)N(C)S(=O)(=O)c1ccc(OC)cc1)N(C)S(=O)(=O)c1ccc(OC)cc1 [Example 59],13,1000,
"C[C@H](CS)NS(=O)(=O)c1ccc(F)cc1 [Example 63, N-(2-mercapto-1R-methylethyl)-4-fluorobenzenesulfonamide]",2500,300,
"C[C@H](CS)NS(=O)(=O)c1ccc(Br)cc1 [Example 65, N-(2-mercapto-1R-methylethyl)-4-bromobenzenesulfonamide]",445,1000,
